Source: patent US7718651B2, “Inhibitors of FtsZ and uses thereof” (priority 2002, dated 2010)
Converted amounts (≈) assume the structure as drawn. “And” between values parts separate entries of the source, which are not always exact repeats. Equal entries are not always repeated. “Also recorded” adds a separate entry of the source. Where two headings read alike, the source gives them in different places.

Experiments:
[1] = system: E. faecalis; assay: Microdilution broth MIC, E. faecalis; format: cell-based
[2] = system: Escherichia coli; assay: Microdilution broth MIC, Escherichia coli; format: cell-based
[3] = target: T1, M. tuberculosis FtsZ (Mycobacterium tuberculosis, UniProt P9WN95); assay: biochemical; conditions: 100 μM compound, Table 6; read-out: M. tuberculosis FtsZ GTP Hydrolysis % Inhibition (100 μM)
T1 sequence (P9WN95 whole entry, looked up): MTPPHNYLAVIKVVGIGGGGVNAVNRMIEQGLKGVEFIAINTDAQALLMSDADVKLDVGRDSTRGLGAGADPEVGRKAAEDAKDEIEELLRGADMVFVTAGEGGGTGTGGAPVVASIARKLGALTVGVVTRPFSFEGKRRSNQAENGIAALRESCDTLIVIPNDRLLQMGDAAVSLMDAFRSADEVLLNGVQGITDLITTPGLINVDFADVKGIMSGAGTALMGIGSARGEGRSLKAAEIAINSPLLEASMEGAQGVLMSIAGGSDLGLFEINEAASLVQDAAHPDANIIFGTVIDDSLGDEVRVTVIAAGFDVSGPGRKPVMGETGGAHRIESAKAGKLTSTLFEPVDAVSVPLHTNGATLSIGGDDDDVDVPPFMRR

[4] = system: M. tuberculosis H37Rv; assay: microbe, parasite or virus in culture; format: cell-based; conditions: for inhibition of growth at 12.5 µg/mL: Mycobacterium tuberculosis, at 12.5% μg/ml (so in the source), read-out: Primary Screen PI (% inhibition of growth); for inhibition of growth at 12.5 µg/mL / % Inh: M. tuberculosis H37Rv; for activity against M. tuberculosis H37Rv in the primary screen: in words; for % Inh: screen concentration 12.5 g/ml [sic], Table 8
[5] = system: Staphylococcus aureus; assay: Microdilution broth MIC, Staphylococcus aureus; format: cell-based
[6] = system: S. epidermidis; assay: Microdilution broth MIC, S. epidermidis; format: cell-based; conditions: Staphylococcus epidermidis; S. epidermidis SRI 1296, Trimethoprim resistant
[7] = system: Enterococcus hirae; assay: Microdilution broth MIC, Enterococcus hirae; format: cell-based; conditions: Enterococcus hirae SRI 76, Wild type
[8] = system: Bacillus subtilis; assay: Microdilution broth MIC, Bacillus subtilis; format: cell-based; conditions: Bacillus subtilis SRI 1032, Wild type
[9] = system: M. tuberculosis Erdman; assay: Activity in M. tuberculosis-infected mouse bone marrow macrophages; format: cell-based; conditions: for EC90: Mycobacterium tuberculosis, ERDMAN, Bone marrow macrophage, 168 h
Method: Toxicity was determined by visual inspection.

[10] = system: M. tuberculosis H37Rv; assay: MIC99 determination, BACTEC 460 radiometric system; format: cell-based; conditions: Mycobacterium tuberculosis
[11] = system: bovine tubulin; assay: Light scattering assay for tubulin polymerization; format: biochemical
[12] = system: Salmonella typhimurium; assay: Microdilution broth MIC, Salmonella typhimurium; format: cell-based
[13] = system: Mycobacterium bovis (BCG); format: cell-based
[14] = system: M. tuberculosis H37Ra; assay: MIC/MBC, colorimetric (alamar blue) microdilution broth assay; format: cell-based; conditions: for log reduction in cfu/mL: H37Ra
[15] = system: E. faecium; assay: Microdilution broth MIC, E. faecium; format: cell-based; conditions: Enterococcus faecium; E. faecium SRI 1421, Vancomycin resistant
[16] = system: panel of Gram positive rods and cocci; assay: Microdilution broth MIC against a panel of bacteria; format: cell-based
[17] = target: T1, M. tuberculosis FtsZ; assay: biochemical; conditions: read-out: FtsZ polymerization ID50
[18] = system: Vero cells; assay: Cytotoxicity in Vero cells (MTS assay); format: cell-based; conditions: Chlorocebus sabaeus
[19] = M. tuberculosis H37Rv, Table 3, read-out: Screen 2 MIC99
[20] = M. tuberculosis H37Rv, read-out: MIC99
[21] = 72 h, Vero cells, 72 h exposure, Table 3, read-out: IC50
[22] = M. tuberculosis H37Rv, Table 8, read-out: MIC
[23] = Vero cells, Table 8, read-out: IC50

CCOC(=O)Nc1cc(NC(C)CCCN(CC)CC)c2nc(-c3ccccc3)c(-c3ccccc3)nc2n1 (stereo not shown) [SRI-3072, [8-(4-Diethylamino-1-methyl-butylamino)-2,3-diphenyl-pyrido[2,3-b]pyrazin-6-yl]-carbamic acid ethyl ester]
MIC ([1]; E. faecalis SRl 1295, Wild type): 64 µg/mL (≈ 122 µM)
MIC ([1]; Enterococcus faecalis, E. faecalis SM 1414, Vancomycin resistant, read-out: MIC): 64 µg/mL (≈ 122 µM)
MIC ([2]; Escherichia coli SRI 1218, Wild type): > 64 µg/mL
activity against E. coli ([2]; in words): not active
inhibition at 100 µM [3]: 20%
inhibition of growth at 12.5 µg/mL [4]: 100%
activity against M. tuberculosis H37Rv in the primary screen [4]: demonstrated activity
MIC ([5]; S. aureus SRI 1186, Wild type): 32 µg/mL (≈ 60.8 µM)
MIC ([5]; S. aureus SRI 1279, Methicillin resistant): 64 µg/mL (≈ 122 µM)
MIC ([5]; S. aureus SRI 1343, Multi-drug resistant): 64 µg/mL (≈ 122 µM)
MIC ([5]; Staphylocococcus aureus SRI 1323, Wild type): 32 µg/mL (≈ 60.8 µM)
MIC ([5]; strain not named): 32 µg/mL (≈ 60.8 µM)
MIC [6]: 32 µg/mL (≈ 60.8 µM)
MIC [7]: 32 µg/mL (≈ 60.8 µM)
MIC [8]: 16 µg/mL (≈ 30.4 µM)
EC90 ([9]; after seven days, read-out: EC90): 0.12 µg/mL
EC90 ([9]; after seven days, read-out: EC90 (90% reduction in mycobacterial growth)): 0.23 µM
EC99 ([9]; after seven days): 1.42 µg/mL
EC99 (99% reduction in mycobacterial growth) ([9]; after seven days): 2.7 µM
growth of M. tuberculosis in infected mouse bone marrow macrophages ([9]; in words): inhibit the growth
MIC ([10]; H37RV, MIC referred to for dosing of the macrophage assay, strain not stated, read-out: MIC): 0.2 µg/mL (≈ 0.38 µM)
MIC99 [10, 19]: 0.15 µg/mL
MIC99 [10, 20]: 0.15 µg/mL and 0.28 µM
MIC ([10]; wildtype (H37Rv), Table 5, read-out: MIC, WT): 0.2 µg/mL (≈ 0.38 µM)
inhibition of tubulin polymerization ([11]; in words, 100 μM): no inhibition of tubulin was seen; also recorded: no effect
Bovine Brain Tubulin Polymerization ID50 ([11]; tubulin 20 μM, 1 mM GTP, Table 6): no inhibition (100 μM)
MIC ([12]; Salmonella enterica, TYPHIMURIUM): 64 µg/mL (≈ 122 µM)
activity against S. typhimurium deep rough (rfa) mutant ([12]; in words): active
cell length / morphology [13]: much longer and branched
recovery after washing to remove drug ([13]; BCG cultured cells): do not recover
log reduction in cfu/mL ([14]; 0.95 μM drug, six days): 0.98±0.11
log reduction in cfu/mL ([14]; 1.9 μM drug, six days): 1.7±0.06
log reduction in cfu/mL ([14]; 3.8 μM drug, six days): 2.0±0.12
MBC ([14]; Mycobacterium tuberculosis, H37RA, 144 h, M. tuberculosis H37Ra, six days): 1 µg/mL to 2 µg/mL and 1.9 µM to 3.8 µM
MIC ([14]; Mycobacterium tuberculosis, H37RA, M. tuberculosis H37Ra, FIG. 2 legend): 250 µg/mL (≈ 475 µM)
MIC ([14]; Mycobacterium tuberculosis, H37RA, M. tuberculosis H37Ra, read-out: MIC): 0.25 µg/mL and 0.47 µM
MIC [15]: 32 µg/mL (≈ 60.8 µM)
MIC ([16]; Bacillus subtilis, read-out: MICs against expanded panel of Gram positive rods and cocci): 32 to 64 µg/mL (≈ 60.8 to 122 µM)
activity against several Gram-positive bacteria, including drug resistant strains ([16]; in words): moderate activity
IC50 [17]: 52 ± 12 µM
IC50 [18, 21]: 6.3 µg/mL (≈ 12 µM)
IC50 ([18]; Vero cells, read-out: IC50): 6.3 µg/mL (≈ 12 µM)

CCOC(=O)Nc1cc2c(c(N)n1)N=C(c1ccccc1)CCN2 [Compound A2]
% Inh [4]: 100%
MIC [10, 22]: 6.25 µg/mL (≈ 19.2 µM)
IC50 [18, 23]: > 200 µg/mL

CCOC(=O)Nc1cc2c(c(N)n1)N=C(CN(C)c1ccccc1)CN2 [Compound A53]
% Inh [4]: 92%
MIC [10, 22]: 12.5 µg/mL (≈ 35.3 µM)
IC50 [18, 23]: 0.41 µg/mL (≈ 1.16 µM)

CC(C)OC(=O)Nc1cc2c(c(N)n1)N=C(c1ccccc1)[C@H](C)N2 [Compound A11]
% Inh [4]: 99%
MIC [10, 22]: 12.5 µg/mL (≈ 36.8 µM)
IC50 [18, 23]: 1.51 µg/mL (≈ 4.45 µM)

C[C@@H]1Nc2cc(NC(=O)OCc3ccccc3)nc(N)c2N=C1c1ccccc1 [Compound A26]
% Inh [4]: 98%
MIC [10, 22]: 12.5 µg/mL (≈ 32.3 µM)
IC50 [18, 23]: 1.51 µg/mL (≈ 3.9 µM)

CCOC(=O)Nc1cc2c(c(N)n1)N=C(c1ccccc1)CCN2 [SRI-7614, (1-Amino-8-phenyl-6,7-dihydro-5H-2,5,9-triaza-benzocyclohepten-3-yl)-carbamic acid ethyl ester]
inhibition at 100 µM [3]: 25%
inhibition of growth at 12.5 µg/mL [4]: 100%
activity against M. tuberculosis H37Rv in the primary screen [4]: demonstrated activity
MIC99 ([10]; H37RV): 6.25 µg/mL
MIC99 ([10]; H37RV, read-out: Screen 2 MIC99): 6.25 µg/mL
MIC99 [10, 20]: 19 µM
IC50 ([11]; read-out: tubulin polymerization ID50): 4 µM
IC50 [17]: 60 µM
IC50 [18, 21]: > 200 µg/mL
IC50 ([18]; Vero cells, read-out: IC50): > 200 µg/mL

CC[C@@H](CO)NCCN[C@@H](CC)CO [Ethambutol, ethambutol, reference compound]
MIC ([14]; Mycobacterium tuberculosis, H37RA, M. tuberculosis H37Ra, positive control, read-out: MIC): 2 µg/mL (≈ 9.79 µM)

CCOC(=O)Nc1cc(NC(C)C(O)COc2ccccc2)c(N)c(N)n1 (stereo not shown) [Compound A35]
% Inh [4]: 97%
MIC [10, 22]: 12.5 µg/mL (≈ 33.3 µM)
IC50 [18, 23]: > 1000 µg/mL

CCOC(=O)Nc1cc(NC(C)C(O)COc2ccccc2)c(N)c(N)n1 (stereo not shown) [SRI-7405, [5,6-Diamino-4-(2-hydroxy-1-methyl-3-phenoxy-propylamino)-pyridin-2-yl]-carbamic acid ethyl ester]
inhibition of growth at 12.5 µg/mL [4]: 97%
activity against M. tuberculosis H37Rv in the primary screen [4]: demonstrated activity
MIC99 [10, 19]: 12.5 µg/mL
IC50 [18, 21]: > 1000 µg/mL

CCCCC1=Nc2c(cc(NC(=O)OCC)nc2N)NC1C (stereo not shown) [Compound A41]
% Inh [4]: 95%
MIC [10, 22]: 12.5 µg/mL (≈ 40.9 µM)
IC50 [18, 23]: 1.51 µg/mL (≈ 4.94 µM)

CCOC(=O)Nc1cc(NC(C)CCCN(CC)CC)c2nc(-c3ccc(F)cc3)cnc2n1 (stereo not shown) [Compound A25]
% Inh [4]: 98%
MIC ([10]; H37RV): 12.5 µg/mL (≈ 26.7 µM)
IC50 [18]: 6.8 µg/mL (≈ 14.5 µM)

CCOC(=O)Nc1cc2[nH]c(-c3ccccc3)nc2c(NC(c2ccccc2)c2ccccc2)n1 [Compound A52]
% Inh [4]: 92%
MIC [10, 22]: 12.5 µg/mL (≈ 27 µM)
IC50 [18, 23]: > 200 µg/mL

CCOC(=O)Nc1cc(NC(C)CCCN(CC)CC)c2ncc(-c3ccc(C(F)(F)F)cc3)nc2n1 (stereo not shown) [Compound A23]
% Inh [4]: 98%
MIC ([10]; H37RV): 6.25 µg/mL (≈ 12.1 µM)
IC50 [18]: 1.6 µg/mL (≈ 3.09 µM)

CCOC(=O)Nc1cc(NCc2ccc(S(N)(=O)=O)cc2)c2nc(-c3ccccc3)c(-c3ccccc3)nc2n1 [Compound 4427-026-15, [2,3-Diphenyl-8-(4-sulfamoyl-benzylamino)-pyrido[2,3-b]pyrazin-6-yl]-carbamic acid ethyl ester]
inhibition of growth at 12.5 µg/mL [4]: 97%
activity against M. tuberculosis H37Rv in the primary screen [4]: demonstrated activity
MIC99 [10, 19]: 0.39 µg/mL
IC50 [18, 21]: > 6.25 µg/mL

CCOC(=O)Nc1cc(NC(C)CCCN(CC)CC)c2nc(-c3ccccc3)c(-c3ccccc3)nc2n1.Cl (stereo not shown) [Compound A21]
% Inh [4]: 98%
MIC [10, 22]: 0.1 µg/mL
IC50 [18]: 8.3 µg/mL

CCOC(=O)Nc1cc(NCc2ccc(S(N)(=O)=O)cc2)c2nc(-c3ccccc3)c(-c3ccccc3)nc2n1 [Compound A33]
% Inh [4]: 97%
MIC [10, 22]: 0.39 µg/mL (≈ 0.703 µM)
IC50 [18, 23]: > 6.25 µg/mL

CCOC(=O)Nc1cc2[nH]c(-c3ccc(OC)cc3)nc2c(NC(c2ccccc2)c2ccccc2)n1 [Compound A46]
% Inh [4]: 93%
MIC [10, 22]: 3.13 µg/mL (≈ 6.34 µM)
IC50 [18, 23]: 189 µg/mL (≈ 383 µM)

CCOC(=O)Nc1cc(NC(C)CCCN(CC)CC)c2ncc(-c3ccc(Cl)c(Cl)c3)nc2n1.Cl.Cl (stereo not shown) [Compound A7]
% Inh [4]: 99%
MIC [10, 22]: 3.13 µg/mL
IC50 [18]: 1.89 µg/mL
